The values below come from patent US8372967B2, “Compounds and methods for modulating expression of GCCR” (Isis Pharmaceuticals, Inc., priority 2006, dated 2013).

One data set relates to monkey GCGR mRNA. The data set is described as follows: Antisense inhibition of GCGR in primary monkey hepatocytes (Table 80). The format is cell-based. Conditions: relative to untreated control cells. The method, then:
Additional short antisense compounds targeted to a GCGR nucleic acid were tested for their effects on monkey GCGR mRNA in vitro. Cultured primary monkey hepatocytes were treated as described herein with 25, 50, 100 or 200 nM of short antisense compound. After the treatment period, RNA was isolated from the cells and GCGR mRNA levels were measured by quantitative real-time PCR, as described herein. GCGR mRNA levels were adjusted according to total RNA content as measured by RIBOGREEN®. Results are presented in Table 80 as percent reduction in GCGR mRNA, relative to untreated control cells.

For the next data set, the system named is PTEN mRNA. The data set is described as follows: PTEN mRNA levels in liver, kidney and fat, Balb/c mice, single i.p. 8 μmol/kg (Table 48). Conditions: 72 h, saline = 100. The format is in vivo, mouse. The text has this:
Each dose group consisted of four animals. Shown in Table 46 are the sequences and motifs of the PTEN antisense compounds used in this study. Bolded residues indicate 2′-O-methoxyethyl moieties (2′-MOE) and italicized residues indicate Methyleneoxy BNA nucleotides. Each antisense compound comprises phosphorothioate linkages throughout. In addition, the cytosine residues in the gap of ISIS 384073 and in the wings of ISIS 392056, ISIS 392057, ISIS 392061 and ISIS 392063 are replaced with 5-methylcytosines. Antisense compounds target published PTEN nucleic acids, including Genbank Accession No. U92437.1 (SEQ ID
Mice were sacrificed 72 hours following injection to determine serum transaminase levels (Table 47); liver and spleen weights (Table 47); and PTEN mRNA levels in liver, kidney and fat (Table 48), according to procedures described herein and well know to one of ordinary skill in the art.

For data set [1], the system named is rat SGLT2 mRNA. Kind of data set: Rat SGLT2 mRNA in kidney, 1-10-1 and 1-10-2 MOE gapmers, Sprague-Dawley rats (Table 63). The format is in vivo. The text has this:
1-10-1 and 1-10-2 MOE gapmer antisense compounds, provided in Table 62, were designed to target different regions of the mouse or rat SGLT2 RNA. All short antisense compounds in Table 62 are chimeric oligonucleotides (“gapmers”) either 12 or 13 nucleotides in length, composed of a central “gap” segment consisting of ten 2′-deoxynucleotides, which are flanked on the 5′ side by a one-nucleoside “wing” and on the 3′ side by a two or one-nucleotide “wing”. […] All cytidine residues are 5-methylcytidines.
The short antisense compounds were analyzed for their effect on rat SGLT2 mRNA levels. Data are ranges taken from three experiments in which Male Sprague-Dawley rats (170-200 g) were dosed twice per week for three weeks with 450, 150 or 50 nmol/kg of either a 1-10-1 or 1-10-2 MOE gapmer given by intraperitoneal injection. Rats were sacrificed 48 hours following last administration and evaluated for SGLT2 mRNA levels in kidney. Target levels were determined by RT, real-time PCR as described by other examples herein. PCR results were normalized to an internal ISIS control.

Data set [2] relates to mouse SGLT2 mRNA. Kind of data set: Mouse SGLT2 mRNA in kidney, 1-10-1 MOE gapmers, Balb/c mice (Table 65). The format is in vivo. Here is the method:
The short antisense compounds were analyzed for their effect on mouse SGLT2 mRNA levels. Data was taken from three experiments in which Male 6-week old Balb/c mice were dosed twice per week for two weeks with 450, 150, or 50 nmol/kg of one of the above 1-10-1 MOE gapmers given by intraperitoneal injection. Mice were sacrificed 48 hours following last administration and evaluated for SGLT2 mRNA levels in kidney. Target levels were determined by RT, real-time PCR as described by other examples herein. PCR results were normalized to an internal ISIS control.

For data set [3], the system named is rat SGLT2 mRNA. The data set is described as follows: Rat SGLT2 mRNA in kidney, 1-10-1 gapmers, 250 nmol/kg (Table 66). The format is in vivo. To be noted: for % change in SGLT2 expression relative to saline: 250 nmol/kg i.p. twice per week for three weeks, Sprague-Dawley rat kidney. The method, then:
The effect of the above 1-10-1 gapmers (see Table 64 above) on rat SGLT2 mRNA levels. Data are taken from four experiments in which male Sprague-Dawley rats (170-200 g) were dosed twice per week for three weeks with 250 nmol/kg given by intraperitoneal injection. Rats were sacrificed 48 hours following last administration and evaluated for SGLT2 mRNA levels in kidney. Target levels were determined by RT, real-time PCR as described by other examples herein. PCR results were normalized to an internal ISIS control.

The test system of data set [4] is mouse SGLT2 mRNA. The data set is described as follows: Mouse SGLT2 mRNA in kidney, additional 1-10-1 and 2-8-2 MOE gapmers (Table 68). The format is in vivo. To be noted: Balb/c mouse kidney. Here is the method: 1-10-1 and 2-8-2 MOE gapmer short antisense compounds were designed to target different regions of the mouse SGLT2 RNA but have complementarity across species. […] All cytidine residues are 5-methylcytidines.
The short antisense compounds were analyzed for their effect on mouse SGLT2 mRNA levels in vivo. Data was taken from three experiments in which male 6-week old Balb/c mice were dosed twice per week for three weeks with 0.5, 0.1, or 0.02 umol/kg of either a 1-10-1 or 2-8-2 MOE gapmer given by intraperitoneal injection. Mice were sacrificed 48 hours following last administration and evaluated for SGLT2 levels in kidney. Target levels were determined by RT, real-time PCR as described by other examples herein. PCR results were normalized to an internal ISIS control.

The mark [5] stands for this setting: 50 nmol/kg i.p. twice per week for two weeks.
Where [6] appears, read: 150 nmol/kg i.p. twice per week for two weeks.
[7] abbreviates: 450 nmol/kg i.p. twice per week for two weeks.
Where [8] appears, read: 0.02 umol/kg i.p. twice per week for three weeks.
[9] abbreviates: 0.1 umol/kg i.p. twice per week for three weeks.
The mark [10] stands for this setting: 0.5 umol/kg i.p. twice per week for three weeks.

Strand notation (5' to 3'): a small letter for the sugar, then the base; units joined by * are phosphorothioate-linked, units joined directly phosphodiester-linked; [ ] holds rarer units or linkages, { } end groups; capitals alone tell only the bases. e = 2'-O-(2-methoxyethyl) (MOE); l = locked nucleic acid (LNA); [5mC] = 5-methylcytosine; d = 2'-deoxy (DNA)

For “327131 (antisense eA*eT*eG*dT*dT*dG*dG*d[5mC]*d[5mC]*dG*dT*eG*eG*eT) [compound 327131]”, the “percent reduction in GCGR mRNA” value in the data set with monkey GCGR mRNA (25 nM) was 0%; with monkey GCGR mRNA (50 nM), −8%; with monkey GCGR mRNA (100 nM), −36%; in the data set on monkey GCGR mRNA (200 nM), −36%.
For the substance “384073 (antisense lG*lC*lT*dA*dG*d[5mC]*d[5mC]*dT*d[5mC]*dT*dG*dG*dA*lT*lT*lT) [compound 384073]”, in the data set on PTEN mRNA, the “% PTEN mRNA levels in Fat” value came to 77%, the “% PTEN mRNA levels in Kidney” value came out at 74% and the “% PTEN mRNA levels in Liver” value worked out at 24%.
Regarding “ISIS 379699: GGCATGAGCTTC 1-10-1 MOE, SGLT2 (eG*dG*d[5mC]*dA*dT*dG*dA*dG*d[5mC]*dT*dT*e[5mC])”, the “% change in SGLT2 expression relative to saline” value in the data set on rat SGLT2 mRNA [1] (50 nmol/kg i.p. twice per week for three weeks) is on record as −60%; in the data set on rat SGLT2 mRNA [1] (150 nmol/kg i.p. twice per week for three weeks) it was −75%; in the data set with rat SGLT2 mRNA [1] (450 nmol/kg i.p. twice per week for three weeks), −83%; in the data set on mouse SGLT2 mRNA [2] (setting [5]) it was −42.5%; in the data set on mouse SGLT2 mRNA [2] (setting [6]) it was −62.5%; with mouse SGLT2 mRNA [2] (setting [7]), −80%. The “% change in SGLT2 expression relative to saline” value in the data set with rat SGLT2 mRNA [3] is −75%; in the data set on mouse SGLT2 mRNA [4] (setting [8]), −30%; with mouse SGLT2 mRNA [4] (setting [9]), −60%; in the data set with mouse SGLT2 mRNA [4] (setting [10]) it was −75%.
As to “ISIS 379702 (eG*d[5mC]*dA*d[5mC]*dA*d[5mC]*dA*dG*d[5mC]*dT*dG*e[5mC])”, the “% change in SGLT2 expression relative to saline” value in the data set with mouse SGLT2 mRNA [2] (setting [5]) is recorded as −52.5%; in the data set on mouse SGLT2 mRNA [2] (setting [6]) it was −72.5%; in the data set with mouse SGLT2 mRNA [2] (setting [7]) it was −75%; with rat SGLT2 mRNA [3] it was −25%; in the data set with mouse SGLT2 mRNA [4] (setting [8]) it was −40%; with mouse SGLT2 mRNA [4] (setting [9]) it was −65%. Also, the “% change in SGLT2 expression relative to saline” value in the data set with mouse SGLT2 mRNA [4] (setting [10]) is given as −70%.
On to “ISIS 381408: 1-10-1 MOE gapmer targeting SGLT2 mRNA (TACCGAACACCT; sugars from the 5' end e1 d10 e1, backbone and methylation of C not given here)”, for which the “% change in SGLT2 expression relative to saline” value with rat SGLT2 mRNA [3] was −5%. For the same substance, the “expression of SGLT2 in in vivo rat studies” value with rat SGLT2 mRNA [3] (250 nmol/kg twice per week for three weeks) was “Activity of ISIS 381408 has been shown”.
